Experimental data as given in patent US3983105A, “Penicillins” (Bayer Aktiengesellschaft, priority 1971, dated 1976).
Values joined by “and” are separate entries in the source; they are usually repeats but may differ in a detail not shown here. Equal entries are not always repeated.

Columns and labels:
Format in all cases: cell-based
[1] = system: Pseudomonas aeruginosa; test: MIC, test tube serial dilution, Pseudomonas aeruginosa
[2] = system: Klebsiella-Aerobacter; test: MIC, test tube serial dilution, Klebsiella-Aerobacter
[3] = system: Escherichia coli; test: MIC, test tube serial dilution, Escherichia coli
[4] = system: Proteus morganii; test: MIC, test tube serial dilution, Proteus morganii; details: unit assumed
[5] = system: Proteus vulgaris; test: MIC, test tube serial dilution, Proteus vulgaris
[6] = system: Streptococcus faecalis; test: MIC, test tube serial dilution, Streptococcus faecalis
[7] = system: Staphylococcus aureus; test: MIC, test tube serial dilution, Staphylococcus aureus
[8] = strain 1756 (BRL 1 756), 24 hours, 37°C

| Molecule | MIC ([1]; strain Bonn, 24 hours, 37°C) | MIC ([2]; strain 63, 24 hours, 37°C) | MIC ([3]; strain 183/58, 24 hours, 37°C) | MIC ([3]; strain A 261, 24 hours, 37°C) | MIC [4] | MIC ([5]; unit assumed) | MIC ([6]; ATCC 9790, 24 hours, 37°C) | MIC [7, 8] | MIC ([1]; in µg/mL (unit assumed)) | MIC ([2]; in µg/mL (unit assumed)) | MIC ([6]; unit assumed) | other results |
| --- | --- | --- | --- | --- | --- | --- | --- | --- | --- | --- | --- | --- |
| CC(=O)N1CCN(C(=O)N[C@@H](C(=O)N[C@@H]2C(=O)N3[C@@H]2SC(C)(C)[C@@H]3C(=O)O)c2ccccc2)C1=O [Example 1, Sodium D(-)-α-[(3-acetyl-imidazolidin-2-on-1-yl)-carbonylamino]-benzylpenicillin] | 25 U/ml | 25 U/ml | 3 U/ml | 400 U/ml | 6 µg/mL | 6 µg/mL | 25 U/ml | 400 U/ml | – | – | – | MIC ([1]; strain Walter, 24 hours, 37°C): 50 U/ml; MIC ([2]; strain K 10, 24 hours, 37°C): 100 U/ml |
| COC(=O)N1CCN(C(=O)N[C@@H](C(=O)N[C@@H]2C(=O)N3[C@@H]2SC(C)(C)[C@@H]3C(=O)O)c2ccccc2)C1=O [Example 3, Sodium D(-)-α-[(3-methoxycarbonyl-imidazolidin-2-on-1-yl)-carbonylamino]-benzylpenicillin] | 16 U/ml | 16 U/ml | 4 U/ml | – | 8 µg/mL | 8 µg/mL | 64 U/ml | > 256 U/ml | – | – | – | MIC ([1]; strain Walter, 24 hours, 37°C): 16 U/ml; MIC ([2]; strain K 10, 24 hours, 37°C): 16 U/ml |
| CC1(C)S[C@@H]2[C@H](NC(=O)[C@H](NC(=O)N3CCN(C(N)=O)C3=O)c3ccccc3)C(=O)N2[C@H]1C(=O)O [Example 5, Sodium D(-)-α-[(3-aminocarbonyl-imidazolidin-2-on-1-yl)-carbonylamino]-benzylpenicillin] | – | 16 U/ml | 4 U/ml | 256 U/ml | 32 µg/mL | – | – | > 256 U/ml | 32 | 32 | 32 µg/mL | – |
| CC(C)OC(=O)N1CCN(C(=O)N[C@@H](C(=O)N[C@@H]2C(=O)N3[C@@H]2SC(C)(C)[C@@H]3C(=O)O)c2ccccc2)C1=O [Example 7, Sodium D(-)-α-[(3-i-propyloxycarbonyl-imidazolidin-2-on-1-yl)-carbonylamino]-benzylpenicillin] | 16 U/ml | – | < 1 U/ml | > 256 U/ml | – | – | 16 U/ml | 128 U/ml | 8 | – | – | MIC ([5]; strain 1017, 24 hours, 37°C): 16 U/ml |
| CC1(C)S[C@@H]2[C@H](NC(=O)[C@H](NC(=O)N3CCN(C(=O)N4CCCC4)C3=O)c3ccccc3)C(=O)N2[C@H]1C(=O)O [Example 8, Sodium D(-)-α-[(3-pyrrolidyl-N-carbonyl-imidazolidin-2-on-1-yl)-carbonylamino]-benzylpenicillin] | – | – | 4 U/ml | – | 64 µg/mL | 32 µg/mL | – | 128 U/ml | 32 | – | 128 µg/mL | – |
| CC1(C)S[C@@H]2[C@H](NC(=O)[C@H](NC(=O)N3CCN(C(=O)Nc4ccccc4)C3=O)c3ccccc3)C(=O)N2[C@H]1C(=O)O [Example 10, Sodium D(-)-α-[(3-phenylaminocarbonyl-imidazolidin-2-on-1-yl)-carbonylamino]-benzylpenicillin] | 64 U/ml | – | 4 U/ml | > 256 U/ml | – | 8 µg/mL | – | > 256 U/ml | – | 8 | 128 µg/mL | MIC ([1]; strain Walter, 24 hours, 37°C): 256 U/ml |
| CC1(C)S[C@@H]2[C@H](NC(=O)[C@H](NC(=O)N3CCN(C(=O)Oc4ccccc4)C3=O)c3ccccc3)C(=O)N2[C@H]1C(=O)O [Example 11, Sodium D(-)-α-[(3-phenoxycarbonyl-imidazolidin-2-on-1-yl)-carbonylamino]-benzylpenicillin] | – | – | – | – | 8 µg/mL | 16 µg/mL | – | – | 32 and 16 | 4 | 16 µg/mL | – |
| CC1(C)S[C@@H]2[C@H](NC(=O)[C@H](NC(=O)N3CCN(C(=O)c4ccccc4)C3=O)c3ccccc3)C(=O)N2[C@H]1C(=O)O [Example 12, Sodium D(-)-α-[(3-benzoyl-imidazolidin-2-on-1-yl)-carbonylamino]-benzylpenicillin] | – | – | < 1 U/ml | 64 U/ml | 8 µg/mL | – | – | 256 U/ml | 32 | 8 | 32 µg/mL | – |
| CC1(C)S[C@@H]2[C@H](NC(=O)[C@H](NC(=O)N3CCN(C(=O)c4ccco4)C3=O)c3ccccc3)C(=O)N2[C@H]1C(=O)O [Example 13, Sodium D(-)-α-[(3-furoyl(2)-imidazolidin-2-on-1-yl)-carbonylamino]-benzylpenicillin] | – | – | < 1 U/ml | – | – | – | 16 U/ml | 128 U/ml | – | 8 | – | MIC ([1]; strain F 41, 24 hours, 37°C): 16 U/ml; MIC ([1]; strain Walter, 24 hours, 37°C): 16 U/ml |
| CCCC(=O)N1CCN(C(=O)N[C@@H](C(=O)N[C@@H]2C(=O)N3[C@@H]2SC(C)(C)[C@@H]3C(=O)O)c2ccccc2)C1=O [Example 14, Sodium D(-)-α-[(3-n-butyryl-imidazolidin-2-on-1-yl)-carbonylamino]-benzylpenicillin] | – | – | < 1 U/ml | – | – | – | – | 128 U/ml | 32 | – | 32 µg/mL | – |
| CC1(C)S[C@@H]2[C@H](NC(=O)[C@H](NC(=O)N3CCN=C3NS(C)(=O)=O)c3ccccc3)C(=O)N2[C@H]1C(=O)O [Example 19, Sodium D(-)-α-[(2-methylsulphonylamino-imidazolin(2)-1-yl)-carbonylamino]-benzylpenicillin] | – | – | 16 U/ml | – | 32 µg/mL | 16 µg/mL | – | – | – | – | – | MIC ([5]; strain 1017, 24 hours, 37°C): 16 U/ml |
| CC(C)(C)C(=O)N1CCN(C(=O)N[C@@H](C(=O)N[C@@H]2C(=O)N3[C@@H]2SC(C)(C)[C@@H]3C(=O)O)c2ccccc2)C1=O [Example 21, Sodium D(-)-α-[(3-pivaloyl-imidazolidin-2-on-1-yl)-carbonylamino]-benzylpenicillin] | – | – | < 1 U/ml | 256 U/ml | – | – | 64 U/ml | 256 U/ml | 32 | 8 | – | – |
| CC1(C)S[C@@H]2[C@H](NC(=O)[C@H](NC(=O)N3CCN(C(=O)OC4CCCCC4)C3=O)c3ccccc3)C(=O)N2[C@H]1C(=O)O [Example 23, Sodium D(-)-α-[(3-cyclohexyloxycarbonyl-imidazolidin-2-on-1-yl)-carbonylamino]-benzylpenicillin] | 16 U/ml | – | < 1 U/ml | – | – | – | – | 64 U/ml | 32 | 8 | 32 µg/mL | – |
| Cc1ccc(S(=O)(=O)NC2=NCCN2C(=O)N[C@@H](C(=O)N[C@@H]2C(=O)N3[C@@H]2SC(C)(C)[C@@H]3C(=O)O)c2ccccc2)cc1 [Example 25, Sodium D(-)-α-[(2-tosylamino-imidazolin(2)-1-yl)-carbonylamino]-benzylpenicillin] | 64 U/ml | 64 U/ml | 32 U/ml | > 256 U/ml | – | – | 16 U/ml | 64 U/ml | 32 | – | – | MIC ([2]; strain K 10, 24 hours, 37°C): 64 U/ml; MIC ([3]; strain C 165, 24 hours, 37°C): 16 U/ml; MIC ([5]; strain 1017, 24 hours, 37°C): 16 U/ml |
| CCC(=O)N1CCN(C(=O)N[C@@H](C(=O)N[C@@H]2C(=O)N3[C@@H]2SC(C)(C)[C@@H]3C(=O)O)c2ccccc2)C1=O [Example 26, Sodium D(- )-α-[(2-oxo-3-propionyl-1-imidazolidinyl)-carbonylamino]-benzylpenicillin] | – | 16 U/ml | 4 U/ml | > 256 U/ml | – | – | – | 64 U/ml | 32 | 32 | 8 µg/mL | MIC ([1]; strain Walter, 24 hours, 37°C): 64 U/ml |
| CC1(C)S[C@@H]2[C@H](NC(=O)[C@H](NC(=O)N3CCN(S(=O)(=O)c4ccccc4)C3=O)c3ccccc3)C(=O)N2[C@H]1C(=O)O [Example 27, Sodium D(-)-α-[(2-oxo-3-benzenesulphonyl-1-imidazolidinyl)-carbonylamino]-benzylpenicillin] | – | – | 0.5 U/ml | > 256 U/ml | – | – | – | 64 U/ml | 32 | – | – | – |
| CC1(C)S[C@@H]2[C@H](NC(=O)[C@H](NC(=O)N3CCN(C(=O)NS(C)(=O)=O)C3=O)c3ccccc3)C(=O)N2[C@H]1C(=O)O [Example 30, Sodium D(-)-α-[3-(methylsulphonyl-amino-carbonyl)-imidazolidinon-2-yl-1]-carbonylamino-benzylpenicillin] | – | 64 U/ml | 64 U/ml | > 256 U/ml | 8 µg/mL | – | – | 256 U/ml | 32 | 128 | 128 µg/mL | – |
| CC1(C)S[C@@H]2[C@H](NC(=O)[C@H](NC(=O)N3CCN(S(C)(=O)=O)C3=O)c3ccccc3)C(=O)N2[C@H]1C(=O)O [Penicillin No. 1 (Table 3), Sodium D(-)-α-[(3-methylsulphonyl-imidazolidin-2-on-1-yl)-carbonylamino]-benzylpenicillin] | – | – | – | – | – | – | – | – | – | – | – | MIC ([1]; Table 3, strain F 41): 50 U/ml; MIC ([1]; Table 3, strain Walter): 50 U/ml; MIC ([2]; Table 3, strain 63): 12.5 U/ml; MIC ([2]; Table 3, strain K 10): 6.2 U/ml; MIC ([3]; Table 3, strain 14): < 0.8 U/ml; MIC ([3]; Table 3, strain 183/58): 1.6 U/ml; MIC ([3]; Table 3, strain A 261): 200 U/ml; MIC ([5]; Table 3, strain 1017): 3.1 U/ml; MIC ([6]; Table 3, ATCC 9790): 25 U/ml; MIC ([7]; Table 3, strain 133): < 0.8 U/ml; MIC ([7]; Table 3, strain 1756E): 400 U/ml |
| Sodium D(-)-α-[(3-methylsulphonyl-4- or 5-methyl-imidazolidin-2-on-1-yl)-carbonylamino]-benzylpenicillin [Example 32] | – | – | – | – | 8 µg/mL | 8 µg/mL | – | – | 256 and 128 | 32 and 16 | 16 µg/mL | – |
